According to publication PMC3022755, “HP1 Recruits Activity-Dependent Neuroprotective Protein to H3K9me3 Marked Pericentromeric Heterochromatin for Silencing of Major Satellite Repeats” (PLoS ONE, 2011):
Where no end group is shown, it is not given here. [ ]: non-standard residue; d: D form. Lys(Me3) = C[N+](C)(C)CCCC[C@H](N)C(=O)O

Legend:
[1] = system: HP1 isoform proteins; type: binding, human
[2] = system: ADNP; test: H3 peptide pulldown of HeLa S3 nuclear extract, western blot; type: binding; conditions: immobilized H3 (aa 1-21) peptides on magnetic beads, monoclonal anti-ADNP
[3] = system: three isoforms of HP1, HP1α HP1β and HP1γ, and CDYL1; test: H3 peptide pulldown of HeLa S3 nuclear extract, MS/MS identification; type: binding; conditions: SDS-PAGE
[4] = system: FLAG-tagged ADNP; test: H3 peptide pulldown with TNT-expressed FLAG-tagged ADNP; type: binding; conditions: TNT reticulocyte extract, western blot
[5] = system: H3K9me3 peptide; test: H3K9me3 peptide pulldown with mutant HP1β; type: binding; conditions: H3K9me3 peptides on magnetic beads; with ADNP-FLAG; western blot
[6] = system: PxVxL; conditions: ref [27]; cited from earlier work
Description: (§1) We analyzed this recombinant, mutant HP1βprotein in H3K9me3 peptide pulldown experiments with wild type FLAG-tagged ADNP expressed in TNT reticulocyte extract (Figure 5D). W170A mutation had no effect on HP1β bi ...

[7] = system: HP1 dimerization and H3K9me3; conditions: ref [27]; cited from earlier work
Description: as §1

[8] = system: wild type FLAG-tagged ADNP; test: H3K9me3 peptide pulldown, recruitment of ADNP by mutant HP1β; type: binding; conditions: compared to wild type HP1β; wild type FLAG-tagged ADNP in TNT reticulocyte extract; western blot
[9] = system: recombinant HP1β; test: Fluorescence polarization binding assay; set-up: species or system human; conditions: fluorescein-labeled peptide, averaged from three independent titration reactions
[10] = system: pericentromeric heterochromatin in NIH3T3 cells; test: Localization of YFP-ADNP fusion proteins in living NIH3T3 cells; type: cell-based, mouse; conditions: inducible stable NIH3T3 lines, unfixed; for localization to pericentromeric heterochromatin: Hoechst 33342
[11] = system: H3K9me3 peptide; type: binding
[12] = system: pericentromeric heterochromatin in NIH3T3 cells; test: Localization of CFP-ADNP constructs in living NIH3T3 cells; type: cell-based, mouse; conditions: transient co-expression with RFP-HP1β; unfixed, living cells of low expression level; confocal

With “H3K9me3: H3 (aa 1-21) peptide trimethylated at lysine 9, used for pulldown” the “recruitment of HP1 isoform proteins to peptide” value [1] was “concomitant with recruitment of the different HP1 isoform proteins to the H3K9me3 matrix”, the “enrichment of ADNP on peptide matrix” value [2] was “specific enrichment of ADNP exclusively on the H3K9me3 matrix” and the “proteins specifically interacting with H3 tail depending on K9me3” value [3] was “several known H3K9me3 interaction partners like the three isoforms of HP1”. For the same molecule, the “binding of ADNP to peptide” value ([4]; co-incubated with recombinant HP1α) was “bound specifically to the H3K9me3 peptide”, the “binding of ADNP to peptide” value ([4]; co-incubated with recombinant HP1β) was “bound specifically to the H3K9me3 peptide” and the “binding of ADNP to peptide” value ([4]; co-incubated with recombinant HP1γ) was “bound specifically to the H3K9me3 peptide”. The “binding of ADNP to peptide” value ([4]; without HP1) was “did not bind to any of the differentially loaded beads”.

In the case of “HP1β W170A: recombinant His6-HP1β with tryptophan 170 mutated to alanine”, the “HP1β binding to H3K9me3 peptide” value [5] is listed as “no effect on HP1β binding to the H3K9me3 peptide”, the HP1-PxVxL interaction [6] is listed as “abolish HP1-PxVxL interaction” and the “HP1 dimerization and H3K9me3 binding” value [7] is listed as “without affecting HP1 dimerization and H3K9me3 binding”. For the same molecule, the “recruitment of ADNP to H3K9me3 in presence of mutant HP1β” value [8] was “severely impaired”.

For “EDDSYEAR[Lys(Me3)]SFLTKY [ADNPK767me3 (FP peptide), ADNPK767me3 peptide used for FP measurements]”, the HP1 binding [9] was “does not bind” and the HP1 binding ([9]; listed as methylated peptide spanning the ADNP ARKS region) was “did not detect binding”.

B1: K767R: YFP-ADNP fusion protein with K767R mutation in ARKS motif (protein, UniProt Q9Z103 1-1108, looked up, variant K767R)
Activity-dependent …: MFQLPVNNLGSLRKARKTVKKILSDIGLEYCKEHIEDFKQFEPNDFYLKNTTWEDVGLWDPSLTKNQDYRTKPFCCSACPFSSKFFSAYKSHFRNVHSEDFENRILLNCPYCTFNADKKTLETHIKIFHAPNSSAPSSSLSTFKDKNKNDGLKPKQADNVEQAVYYCKKCTYRDPLYEIVRKHIYREHFQHVAAPYIAKAGEKSLNGAVSLGTNAREECNIHCKRCLFMPKSYEALVQHVIEDHERIGYQVTAMIGHTNVVVPRAKPLMLIAPKPQDKKGMGLPPRISSLASGNVRSLPSQQMVNRLSIPKPNLNSTGVNMMSNVHLQQNNYGVKSVGQSYGVGQSVRLGLGGNAPVSIPQQSQSVKQLLPSGNGRSFGLGAEQRPPAAARYSLQTANTSLPPGQVKSPSVSQSQASRVLGQSSSKPPPAATGPPPSNHCATQKWKICTICNELFPENVYSVHFEKEHKAEKVPAVANYIMKIHNFTSKCLYCNRYLPTDTLLNHMLIHGLSCPYCRSTFNDVEKMAAHMRMVHIDEEMGPKTDSTLSFDLTLQQGSHTNIHLLVTTYNLRDAPAESVAYHAQNNAPVPPKPQPKVQEKADVPVKSSPQAAVPYKKDVGKTLCPLCFSILKGPISDALAHHLRERHQVIQTVHPVEKKLTYKCIHCLGVYTSNMTASTITLHLVHCRGVGKTQNGQDKTNAPSRLNQSPGLAPVKRTYEQMEFPLLKKRKLEEDADSPSCFEEKPEEPVVLALDPKGHEDDSYEARRSFLTKYFNKQPYPTRREIEKLAASLWLWKSDIASHFSNKRKKCVRDCEKYKPGVLLGFNMKELNKVKHEMDFDAEWLFENHDEKDSRVNASKTVDKKHNLGKEDDSFSDSFEHLEEESNGSGSPFDPVFEVEPKIPSDNLEEPVPKVIPEGALESEKLDQKEEEEEEEEEDGSKYETIHLTEEPAKLMHDASDSEVDQDDVVEWKDGASPSESGPGSQQISDFEDNTCEMKPGTWSDESSQSEDARSSKPAAKKKATVQDDTEQLKWKNSSYGKVEGFWSKDQSQWENASENAERLPNPQIEWQNSTIDSEDGEQFDSMTDGVADPMHGSLTGVKLSSQQA
modifications: YFP fusion
notes: YFP-ADNP fusion protein with K767R mutation in ARKS motif
For B1, the “localization to pericentromeric heterochromatin” value (from here on “localization”) [10] was “no effect on ADNP localization”.

B2: V821E: YFP-ADNP fusion protein with V821E mutation in PGVLL motif (protein, UniProt Q9Z103 1-1108, looked up, variant V821E)
Activity-dependent …: MFQLPVNNLGSLRKARKTVKKILSDIGLEYCKEHIEDFKQFEPNDFYLKNTTWEDVGLWDPSLTKNQDYRTKPFCCSACPFSSKFFSAYKSHFRNVHSEDFENRILLNCPYCTFNADKKTLETHIKIFHAPNSSAPSSSLSTFKDKNKNDGLKPKQADNVEQAVYYCKKCTYRDPLYEIVRKHIYREHFQHVAAPYIAKAGEKSLNGAVSLGTNAREECNIHCKRCLFMPKSYEALVQHVIEDHERIGYQVTAMIGHTNVVVPRAKPLMLIAPKPQDKKGMGLPPRISSLASGNVRSLPSQQMVNRLSIPKPNLNSTGVNMMSNVHLQQNNYGVKSVGQSYGVGQSVRLGLGGNAPVSIPQQSQSVKQLLPSGNGRSFGLGAEQRPPAAARYSLQTANTSLPPGQVKSPSVSQSQASRVLGQSSSKPPPAATGPPPSNHCATQKWKICTICNELFPENVYSVHFEKEHKAEKVPAVANYIMKIHNFTSKCLYCNRYLPTDTLLNHMLIHGLSCPYCRSTFNDVEKMAAHMRMVHIDEEMGPKTDSTLSFDLTLQQGSHTNIHLLVTTYNLRDAPAESVAYHAQNNAPVPPKPQPKVQEKADVPVKSSPQAAVPYKKDVGKTLCPLCFSILKGPISDALAHHLRERHQVIQTVHPVEKKLTYKCIHCLGVYTSNMTASTITLHLVHCRGVGKTQNGQDKTNAPSRLNQSPGLAPVKRTYEQMEFPLLKKRKLEEDADSPSCFEEKPEEPVVLALDPKGHEDDSYEARKSFLTKYFNKQPYPTRREIEKLAASLWLWKSDIASHFSNKRKKCVRDCEKYKPGELLGFNMKELNKVKHEMDFDAEWLFENHDEKDSRVNASKTVDKKHNLGKEDDSFSDSFEHLEEESNGSGSPFDPVFEVEPKIPSDNLEEPVPKVIPEGALESEKLDQKEEEEEEEEEDGSKYETIHLTEEPAKLMHDASDSEVDQDDVVEWKDGASPSESGPGSQQISDFEDNTCEMKPGTWSDESSQSEDARSSKPAAKKKATVQDDTEQLKWKNSSYGKVEGFWSKDQSQWENASENAERLPNPQIEWQNSTIDSEDGEQFDSMTDGVADPMHGSLTGVKLSSQQA
modifications: YFP fusion
notes: YFP-ADNP fusion protein with V821E mutation in PGVLL motif
In the case of B2, the “localization” value [10] is reported as “strong reduction of the ADNP signal at regions of pericentromeric heterochromatin” and the “residual signal at pericentromeric heterochromatin” value ([10]; in all cells analyzed) is reported as “faint but significant signal”.

B3: K767R mutant ADNP: FLAG-tagged ADNP, lysine 767 within the ARKS motif changed to arginine (protein, UniProt Q9Z103 1-1108, looked up, variant K767R)
Activity-dependent …: MFQLPVNNLGSLRKARKTVKKILSDIGLEYCKEHIEDFKQFEPNDFYLKNTTWEDVGLWDPSLTKNQDYRTKPFCCSACPFSSKFFSAYKSHFRNVHSEDFENRILLNCPYCTFNADKKTLETHIKIFHAPNSSAPSSSLSTFKDKNKNDGLKPKQADNVEQAVYYCKKCTYRDPLYEIVRKHIYREHFQHVAAPYIAKAGEKSLNGAVSLGTNAREECNIHCKRCLFMPKSYEALVQHVIEDHERIGYQVTAMIGHTNVVVPRAKPLMLIAPKPQDKKGMGLPPRISSLASGNVRSLPSQQMVNRLSIPKPNLNSTGVNMMSNVHLQQNNYGVKSVGQSYGVGQSVRLGLGGNAPVSIPQQSQSVKQLLPSGNGRSFGLGAEQRPPAAARYSLQTANTSLPPGQVKSPSVSQSQASRVLGQSSSKPPPAATGPPPSNHCATQKWKICTICNELFPENVYSVHFEKEHKAEKVPAVANYIMKIHNFTSKCLYCNRYLPTDTLLNHMLIHGLSCPYCRSTFNDVEKMAAHMRMVHIDEEMGPKTDSTLSFDLTLQQGSHTNIHLLVTTYNLRDAPAESVAYHAQNNAPVPPKPQPKVQEKADVPVKSSPQAAVPYKKDVGKTLCPLCFSILKGPISDALAHHLRERHQVIQTVHPVEKKLTYKCIHCLGVYTSNMTASTITLHLVHCRGVGKTQNGQDKTNAPSRLNQSPGLAPVKRTYEQMEFPLLKKRKLEEDADSPSCFEEKPEEPVVLALDPKGHEDDSYEARRSFLTKYFNKQPYPTRREIEKLAASLWLWKSDIASHFSNKRKKCVRDCEKYKPGVLLGFNMKELNKVKHEMDFDAEWLFENHDEKDSRVNASKTVDKKHNLGKEDDSFSDSFEHLEEESNGSGSPFDPVFEVEPKIPSDNLEEPVPKVIPEGALESEKLDQKEEEEEEEEEDGSKYETIHLTEEPAKLMHDASDSEVDQDDVVEWKDGASPSESGPGSQQISDFEDNTCEMKPGTWSDESSQSEDARSSKPAAKKKATVQDDTEQLKWKNSSYGKVEGFWSKDQSQWENASENAERLPNPQIEWQNSTIDSEDGEQFDSMTDGVADPMHGSLTGVKLSSQQA
modifications: FLAG tag
notes: FLAG-tagged ADNP, lysine 767 within the ARKS motif changed to arginine
For B3, the “binding of ADNP protein to H3K9me3 peptide” value [11] was “bound to H3K9me3 peptide in a HP1β dependent manner”.

B4: CFP-ADNP(701-846): CFP fusion of the ADNP homeodomain alone, containing NLS (protein, UniProt Q9Z103 701-846, looked up, fragment)
chain: APSRLNQSPGLAPVKRTYEQMEFPLLKKRKLEEDADSPSCFEEKPEEPVVLALDPKGHEDDSYEARKSFLTKYFNKQPYPTRREIEKLAASLWLWKSDIASHFSNKRKKCVRDCEKYKPGVLLGFNMKELNKVKHEMDFDAEWLFE
modifications: CFP fusion
notes: CFP fusion of the ADNP homeodomain alone, containing NLS
For B4, the “localization” value [12] was “co-localized with HP1β”.
